According to patent publication US20260167622A1, “PAN-KRAS DEGRADING AGENT, AND PREPARATION METHOD THEREFOR AND USE THEREOF” (LEADINGTAC PHARMACEUTICAL (SHAOXING) CO., LTD., priority 2022, published 2026):

Tests used:
Type in all cases: cell-based
[1] = target: T1, KRAS G12D protein in AsPc-1 cells (Homo sapiens, UniProt P01116, G12D); experiment: KRAS degradation assay (Western Blot) in AsPc-1 cells; conditions: for DC50: 24 h; for Dmax: ASPC1, 24 h
T1 construct: endogenous in cells; host or cells: AsPc-1
T1 sequence (P01116 1-188 isoform P01116-2 G12D): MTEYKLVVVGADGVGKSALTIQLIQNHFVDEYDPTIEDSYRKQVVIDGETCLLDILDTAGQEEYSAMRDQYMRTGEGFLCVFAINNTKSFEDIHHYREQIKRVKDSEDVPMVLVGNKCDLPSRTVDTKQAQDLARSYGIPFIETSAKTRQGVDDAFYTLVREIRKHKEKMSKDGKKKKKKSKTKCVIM
Summary of the method: (§1)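 Western blot read-out: KRAS band gray value divided by β-actin, compared with DMSO control to give degradation rate. DC50 and Dmax came from log concentration–response fits after 24 h compound exposure (0.03–3000 nM final, 0.25% DMSO) at 37 °C, 5% CO2.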

[2] = target: T2, KRAS G12D protein in A427 cells (Homo sapiens, UniProt P01116, G12D); experiment: KRAS degradation assay (Western Blot) in A427 cells; conditions: for DC50: 24 h; for Dmax: A-427, 24 h
T2 construct: endogenous in cells; host or cells: A427
T2 sequence (P01116 1-188 isoform P01116-2 G12D): as above
Text: (§2) Test Example 5: KRAS G12C, KRAS G12D, KRAS G12V, KRAS G13D, and KRAS WT (Expanded) Degradation Assays
(§3) The degradation effect of the compounds on KRAS was investigated on KRAS G12C mutant human non-small cell lung cancer cell NCI-H358, KRAS G12D mutant human metastatic pancreatic cancer cell AsPc-1, KRAS G12D mutant human lung cancer cell A427, KRAS G12V mutant human colorectal cancer cell SW620, KRAS G12V mutant human lung cancer cell SW900, KRAS G13D mutant human colorectal cancer epithelial cell DLD-1, and KRAS WT human gastric cancer cell MKN-1. The specific procedures were as follows: 0.95 mL of cells were seeded into each well of a 24-well cell culture plate to achieve a cell density of 5×10^5 cells/well; and the cell plate was incubated in an incubator at 37° C. with 5% CO2 overnight. Then 50 μL of the compound solution after dilution was added to each of the wells with the corresponding cells, so that the final concentration of the compound was in a range of 0.03-3000 nM. The final concentration of DMSO was 0.25%. After the compounds were added, the cell plate was incubated in an incubator at 37° C. with 5% CO2 for 24 h. The culture medium in the 24-well cell culture plate was then removed, and the plate was washed twice with 1×PBS (KeyGEN). 120 μL of RIPA (strong) lysis buffer (Beyotime) (supplemented with 1 mM phenylmethylsulfonyl fluoride, a protease inhibitor mixture (Beyotime), and a protease phosphatase inhibitor mixture (Beyotime)) was added to lyse adherent SW900 cells at the bottom of the cell culture plate. After the plate was left to stand on ice for 30 min, the protein lysate in each well was transferred to a 1.5 mL centrifuge tube and centrifuged at 15000 g for 20 min at 4° C. The cell lysate supernatants after centrifugation were cryopreserved in a refrigerator at −80° C. for later use.
(§4) After the samples of the cell lysate supernatants that had been prepared were thawed from the refrigerator at −80° C., the total protein concentrations of the cell lysates were determined using a BCA protein quantification kit (Tiangen). The total protein concentrations of the samples were then adjusted to 0.5 μg/μL with PBS and 5×SDS-PAGE protein loading buffer (Beyotime), and the samples were incubated in a water bath at 100° C. for 15 min. The samples were then incubated in an ice bath for 5 min and centrifuged at 14000 g for 1 min at 4° C., and the supernatants were mixed well as loading samples for the Western Blot assay. The samples were loaded into wells of a 10% precast gel (KeyGEN) with a loading volume of 10 μL (total protein: 5 μg), a sufficient Tris-MOPS-SDS running buffer (Adamas) was added, and then electrophoresis was performed at a constant voltage of 120 V for 55 min. After the electrophoresis, the proteins on the gel were transferred to PVDF membranes at a constant current of 250 mA for 55 min. After the membrane transfer, the PVDF membranes were incubated in 1× Quick Block blocking buffer (Beyotime)at room temperature for 30 min. After the blocking, the PVDF membranes were separately incubated at 4° C. overnight with the KRAS antibody (Abcam) diluted in a ratio of 1:1000 and the β-actin antibody (Abcam) diluted in a ratio of 1:2000 in 5% BSA as the diluent, and then washed with 1×TBST buffer (2.4 g of Tris, 8.8 g of NaCl, 1.5 mL of Tween 20, with pH adjusted to 7.4, with the volume brought to 1 L) 3 times for 10 min/time. The membranes were incubated with a secondary antibody (Abcam) diluted in 5% BSA at room temperature for 2 h, and then washed with 1×TBST buffer 3 times for 10 min/time. Finally, the membranes were incubated with Clarity Western ECL Substrate (BIO-RAD) for 5 min for luminescence and color development, and a ChemiScope 6200 Touch chemiluminescence imaging system (Clinx) was used for color development and protein mapping. Gray value analysis of the protein maps was performed using the chemiluminescence analysis software (Clinx). […]

[3] = target: T3, KRAS G12C protein in NCI-H358 cells (Homo sapiens, UniProt P01116, G12C); experiment: KRAS degradation assay (Western Blot) in NCI-H358 cells; conditions: 24 h
T3 construct: endogenous in cells; host or cells: NCI-H358
T3 sequence (P01116 1-188 isoform P01116-2 G12C): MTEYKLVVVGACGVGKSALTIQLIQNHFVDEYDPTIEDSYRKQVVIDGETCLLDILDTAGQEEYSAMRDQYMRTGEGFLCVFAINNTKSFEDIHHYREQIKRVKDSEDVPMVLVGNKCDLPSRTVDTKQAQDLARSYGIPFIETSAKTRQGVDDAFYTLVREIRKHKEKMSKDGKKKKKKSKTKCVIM
Text: as §2, §3, §4

[4] = target: T4, KRAS G13D protein in DLD-1 cells (Homo sapiens, UniProt P01116, G13D); experiment: KRAS degradation assay (Western Blot) in DLD-1 cells; conditions: 24 h
T4 construct: endogenous in cells; host or cells: DLD-1
T4 sequence (P01116 1-188 isoform P01116-2 G13D): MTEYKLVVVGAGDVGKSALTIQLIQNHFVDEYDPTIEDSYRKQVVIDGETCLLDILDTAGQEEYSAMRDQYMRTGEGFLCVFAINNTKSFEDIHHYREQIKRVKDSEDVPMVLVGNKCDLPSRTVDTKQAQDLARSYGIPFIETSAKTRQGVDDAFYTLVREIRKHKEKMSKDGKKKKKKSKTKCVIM
Summary of the method: as §1

[5] = target: T5, KRAS WT (expanded) protein in MKN1 cells (Homo sapiens, UniProt P01116); experiment: KRAS degradation assay (Western Blot) in MKN1 cells; conditions: for DC50: 24 h; for Dmax: MKN-1, 24 h
T5 construct: endogenous in cells; host or cells: MKN1 (MKN-1)
T5 sequence (P01116 1-188 isoform P01116-2): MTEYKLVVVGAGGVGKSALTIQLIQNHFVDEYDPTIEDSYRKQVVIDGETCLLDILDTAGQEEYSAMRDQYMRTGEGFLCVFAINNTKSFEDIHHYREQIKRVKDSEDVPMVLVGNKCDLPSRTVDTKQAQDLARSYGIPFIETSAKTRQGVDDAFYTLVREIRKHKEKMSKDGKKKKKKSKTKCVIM
Text: as §2, §3, §4

[6] = target: T6, KRAS G12V protein in SW620 cells (Homo sapiens, UniProt P01116, G12V); experiment: KRAS degradation assay (Western Blot) in SW620 cells; conditions: for DC50: 24 h; for Dmax: SW-620, 24 h
T6 construct: endogenous in cells; host or cells: SW620
T6 sequence (P01116 1-188 isoform P01116-2 G12V): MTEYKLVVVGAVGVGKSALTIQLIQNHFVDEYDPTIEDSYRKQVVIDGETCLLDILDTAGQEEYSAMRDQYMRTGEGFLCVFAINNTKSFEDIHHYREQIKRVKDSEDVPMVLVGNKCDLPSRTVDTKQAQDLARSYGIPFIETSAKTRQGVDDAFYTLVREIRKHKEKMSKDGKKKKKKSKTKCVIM
Summary of the method: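 DC50 and Dmax were fitted from KRAS band intensity, corrected to β-actin and expressed against untreated control, after Western blotting of 5 μg lysate protein. Cells were exposed for 24 h at 37 °C to 0.03-3000 nM compound (final) with 0.25% DMSO.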

SMILES: C#Cc1c(F)ccc2cc(O)cc(-c3ncc4c(N5CCC[C@@](C)(O)C5)nc(OCC5(CN6CCN(CC7CCC8(CC7)CCN(C(=O)c7ccc(C)c(N9CCC(=O)NC9=O)c7)CC8)CC6)CC5)nc4c3F)c12 [Example 6, (R)-1-(5-(9-((4-((1-(((7-(8-ethynyl-7-fluoro-3-hydroxynaphthalen-1-yl)-8-fluoro-4-(3-hydroxy-3-methylpiperidin-1-yl)pyrido[4,3-d]pyrimidin-2-yl)oxy)methyl)cyclopropyl)methyl)piperazin-1-yl)methyl)-3-azaspiro[5.5]undecane-3-carbonyl)-2-methylphenyl)dihydropyrimidine-2,4(1H,3H)-dione]
- DC50 [1]: ≤ 0.05 µM
- Dmax [1]: 80 to 100%
- DC50 [2]: ≤ 0.05 µM
- Dmax [2]: 80 to 100%
- DC50 [3]: ≤ 0.05 µM
- Dmax [3]: 80 to 100%
- DC50 [4]: ≤ 0.05 µM
- Dmax [4]: 80 to 100%
- DC50 [5]: ≤ 0.05 µM
- Dmax [5]: 80 to 100%
- DC50 [6]: 0.00356 µM
- Dmax [6]: 99.1%

SMILES: C#Cc1c(F)ccc2cc(O)cc(-c3ncc4c(N5CCC[C@@](C)(O)C5)nc(OCC5(CN6CCN(CC7CCC8(CC7)CCN(C(=O)c7ccc(OC)c(N9CCC(=O)NC9=O)c7)CC8)CC6)CC5)nc4c3F)c12 [Example 7, (R)-1-(5-(9-((4-((1-(((7-(8-ethynyl-7-fluoro-3-hydroxynaphthalen-1-yl)-8-fluoro-4-(3-hydroxy-3-methylpiperidin-1-yl)pyrido[4,3-d]pyrimidin-2-yl)oxy)methyl)cyclopropyl)methyl)piperazin-1-yl)methyl)-3-azaspiro[5.5]undecane-3-carbonyl)-2-methoxyphenyl)dihydropyrimidine-2,4(1H,3H)-dione]
- DC50 [1]: ≤ 0.05 µM
- Dmax [1]: 80 to 100%
- DC50 [2]: ≤ 0.05 µM
- Dmax [2]: 80 to 100%
- DC50 [3]: ≤ 0.05 µM
- Dmax [3]: 80 to 100%
- DC50 [4]: ≤ 0.05 µM
- Dmax [4]: 80 to 100%
- DC50 [5]: ≤ 0.05 µM
- Dmax [5]: 80 to 100%
- DC50 [6]: 0.00062 µM
- Dmax [6]: 100%

SMILES: C#Cc1c(F)ccc2cc(O)cc(-c3ncc4c(N5CCC[C@@](C)(O)C5)nc(OCC5(CN6CCN(CC7CCC8(CC7)CCN(C(=O)c7ccc(Cl)c(N9CCC(=O)NC9=O)c7)CC8)CC6)CC5)nc4c3F)c12 [Example 1, (R)-1-(2-chloro-5-(9-((4-((1-(((7-(8-ethynyl-7-fluoro-3-hydroxynaphthalen-1-yl)-8-fluoro-4-(3-hydroxy-3-methylpiperidin-1-yl)pyrido[4,3-d]pyrimidin-2-yl)oxy)methyl)cyclopropyl)methyl)piperazin-1-yl)methyl)-3-azaspiro[5.5]undecane-3-carbonyl)phenyl)dihydropyrimidine-2,4(1H,3H)-dione]
- DC50 [1]: ≤ 0.05 µM
- Dmax [1]: 80 to 100%
- DC50 [2]: ≤ 0.05 µM
- Dmax [2]: 80 to 100%
- DC50 [3]: ≤ 0.05 µM
- Dmax [3]: 80 to 100%
- DC50 [4]: ≤ 0.05 µM
- Dmax [4]: 80 to 100%
- DC50 [5]: ≤ 0.05 µM
- Dmax [5]: 80 to 100%
- DC50 [6]: 0.00267 µM
- Dmax [6]: 100%

SMILES: CCc1cccc2cc(O)cc(-c3ncc4c(N5CCC[C@@](C)(O)C5)nc(OCC5(CN6CCN(CC7CCC8(CC7)CCN(C(=O)c7ccc(Cl)c(N9CCC(=O)NC9=O)c7)CC8)CC6)CC5)nc4c3F)c12 [Example 3, (R)-1-(2-chloro-5-(9-((4-((1-(((7-(8-ethyl-3-hydroxynaphthalen-1-yl)-8-fluoro-4-(3-hydroxy-3-methylpiperidin-1-yl)pyrido[4,3-d]pyrimidin-2-yl)oxy)methyl)cyclopropyl)methyl)piperazin-1-yl)methyl)-3-azaspiro[5.5]undecane-3-carbonyl)phenyl)dihydropyrimidine-2,4(1H,3H)-dione]
- DC50 [1]: ≤ 0.05 µM
- Dmax [1]: 80 to 100%
- DC50 [2]: ≤ 0.05 µM
- Dmax [2]: 80 to 100%
- DC50 [3]: ≤ 0.05 µM
- Dmax [3]: 80 to 100%
- DC50 [4]: ≤ 0.05 µM
- Dmax [4]: 80 to 100%
- DC50 [5]: ≤ 0.05 µM
- Dmax [5]: 80 to 100%
